# Results reported in patent publication US9795140B2, “Molecules having pesticidal utility, and intermediates, compositions, and processes, related thereto” (priority 2015, dated 2017).
# What was measured:
# Format in all cases: in vivo
# [1] = tested on: Beet Armyworm (Spodoptera exigua, LAPHEG); experiment: Bioassay on Beet Armyworm (BAW), 128-well diet tray assay; conditions: 168 h, 50 μg/cm^2 on artificial diet, second instar larvae, 25° C., five to seven days, average of eight wells, read-out: BAW % Control (or Mortality) rating
# Procedure, shortened: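 Diet tray, 8 wells/compound; 50 μg/cm^2 applied to diet surface (90:10 acetone-water), dried. 1–5 L2 larvae/well; 25° C., 14:10 L:D, 5–7 d. Read-out: % mortality, mean of 8 wells.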
# [2] = tested on: Cabbage Looper (Trichoplusia ni, TRIPNI); experiment: Bioassay on Cabbage Looper (CL), 128-well diet tray assay; conditions: 168 h, 50 μg/cm^2 on artificial diet, second instar larvae, 25° C., five to seven days, average of eight wells, read-out: CL % Control (or Mortality) rating
# Procedure, shortened: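 Percent larval mortality, averaged across eight replicate wells, was scored after 5–7 days at 25 °C with a 14:10 photoperiod. Each well held 1 mL diet surface-treated at 50 μg/cm^2 with test molecule from a 90:10 acetone-water solution, then dried. Wells were infested with one to five second-instar cabbage loopers.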
# [3] = tested on: Green Peach Aphid (Myzus persicae, MYZUPE); experiment: Bioassay on Green Peach Aphid (GPA), foliar spray on cabbage seedlings; conditions: 72 h, 200 ppm spray on infested cabbage seedlings, three days, Abbott corrected % control, read-out: GPA % Control (or Mortality) rating
# Procedure: Certain molecules disclosed in this document were tested against GPA using procedures described in the following example. In the reporting of the results, the “GPA & YFM Rating Table” was used (See Table Section).
# Cabbage seedlings grown in 3-inch pots, with 2-3 small (3-5 cm) true leaves, were used as test substrate. The seedlings were infested with 20-50 GPA (wingless adult and nymph stages) one day prior to chemical application. Four pots with individual seedlings were used for each treatment. Test molecules (2 mg) were dissolved in 2 mL of acetone/methanol (1:1) solvent, forming stock solutions of 1000 ppm test molecule. The stock solutions were diluted 5× with 0.025% Tween 20 in water to obtain the solution at 200 ppm test molecule. A hand-held aspirator-type sprayer was used for spraying a solution to both sides of […] leaves until runoff. Reference plants (solvent check) were sprayed with the diluent only containing 20% by volume of acetone/methanol (1:1) solvent. Treated plants were held in a holding room for three days at approximately 25° C. and ambient relative humidity (RH) prior to grading. Evaluation was conducted by counting the number of live aphids per plant under a microscope. Percent control was measured using Abbott's correction formula (W. S. Abbott, “A Method of Computing the Effectiveness of an Insecticide” J. Econ. Entomol. 18 (1925), pp. 265-267) as follows. Corrected % Control=100*(X−Y)/X where X=No. of live aphids on solvent check plants and Y=No. of live aphids on treated plants. The results are indicated in the table entitled “Table ABC: Biological Results” (See Table Section).
# [4] = tested on: Yellow Fever Mosquito (Aedes aegypti, AEDSAE); experiment: Bioassay on Yellow Fever Mosquito (YFM) larvae, 96-well plate; conditions: about 1 day-old larvae, room temperature, 3 days, scored on mortality
# Procedure, shortened: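 Each well was scored for mortality after 3 days at room temperature under a non-evaporative lid. Test molecules came from DMSO masters (4000 ppm stock) diluted with water/acetone 90:10 and dispensed into six replicate plates, which were then infested with roughly 1-day-old larvae in liver-powder water.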
Structure (SMILES),mortality at 50 µg/cm2 [1] [%],mortality at 50 µg/cm2 [2] [%],mortality at 200 ppm [3] [%],YFM % Control (or Mortality) rating [4]
"CC(C)(C)c1ccc(CNC(=O)c2cc(NC(=O)C3C(c4cc(Cl)cc(Cl)c4)C3(Cl)Cl)ccc2Cl)cc1 (stereo not drawn) [F36, trans-N-(4-(tert-Butylbenzyl)-2-chloro-5-(2,2-dichloro-3-(3,5-dichlorophenyl)cyclopropane-1-carboxamido)benzamide]",0,0,0,B (More than 0-Less than 80)
"O=C(NOCC1CC1)c1cc(NC(=O)C2C(c3cc(Cl)c(Cl)c(Cl)c3)C2(Cl)Cl)ccc1Cl (stereo not drawn) [F15, trans-N-2-Chloro-N-(cyclopropylmethoxy)-5-(2,2-dichloro-3-(3,4,5-trichlorophenyl)cyclopropane-1-carboxamido)benzamide]",50 to 100,50 to 100,80 to 100,A (80-100)
"O=C(NCC1CC1)c1cc(NC(=O)[C@H]2[C@H](c3cc(Cl)cc(Cl)c3)C2(Cl)Cl)ccc1Cl (relative stereo) [F35, trans-2-Chloro-N-(cyclopropylmethyl)-5-(2,2-dichloro-3-(3,5-dichlorophenyl)cyclopropane-1-carboxamido)benzamide]",50 to 100,50 to 100,80 to 100,A (80-100)
"CNC(=O)c1cc(NC(=O)[C@H]2[C@H](c3cc(Cl)cc(Cl)c3)C2(Cl)Cl)ccc1C(F)(F)F (relative stereo) [F2, trans-5-(2,2-Dichloro-3-(3,5-dichlorophenyl)cyclopropane-1-carboxamido)-N-methyl-2-(trifluoromethyl)benzamide]",50 to 100,50 to 100,0 to 80,A (80-100)
"O=C(NOCc1ccc(F)cc1)c1cc(NC(=O)C2C(c3cc(Cl)cc(Cl)c3)C2(Cl)Cl)ccc1Cl (stereo not drawn) [F17, trans-N-2-Chloro-5-(2,2-dichloro-3-(3,5-dichlorophenyl)cyclopropane-1-carboxamido)-N-((4-fluorobenzyl)oxy)benzamide]",50 to 100,50 to 100,0 to 80,A (80-100)
"C[C@H](CS(=O)(=O)CC(F)(F)F)NC(=O)c1cc(NC(=O)C2C(c3cc(Cl)cc(Cl)c3)C2(Cl)Cl)ccc1Cl (stereo in doubt) [PF6, trans-2-Chloro-5-(2,2-dichloro-3-(3,5-dichlorophenyl)cyclopropane-1-carboxamido)-N—((R)-1-((2,2,2-trifluoroethyl)sulfonyl)propan-2-yl)benzamide]",50 to 100,50 to 100,0 to 80,A (80-100)
"O=C(NCc1ccncc1)c1cc(NC(=O)[C@H]2[C@H](c3cc(Cl)cc(Cl)c3)C2(Cl)Cl)ccc1Cl (relative stereo) [F12, trans-2-Chloro-5-(2,2-dichloro-3-(3,5-dichlorophenyl)cyclopropane-1-carboxamido)-N-(pyridin-4-ylmethyl)benzamide]",50 to 100,50 to 100,0 to 80,A (80-100)
"CC(C)(CS(C)(=O)=O)NC(=O)c1cc(NC(=O)[C@H]2[C@H](c3cc(Cl)cc(Cl)c3)C2(Cl)Cl)ccc1Cl (relative stereo) [F42, trans-2-Chloro-5-(2,2-dichloro-3-(3,5-dichlorophenyl)cyclopropane-1-carboxamido)-N-(2-methyl-1-(methylsulfonyl)propan-2-yl)benzamide]",50 to 100,50 to 100,0 to 80,A (80-100)
"O=C(NCc1ccncc1)c1cc(NC(=O)[C@H]2[C@H](c3cc(Cl)c(Cl)c(Cl)c3)C2(Cl)Cl)ccc1Cl (relative stereo) [F13, trans-2-Chloro-5-(2,2-dichloro-3-(3,4,5-trichlorophenyl)cyclopropane-1-carboxamido)-N-(pyridin-4-ylmethyl)benzamide]",50 to 100,50 to 100,0 to 80,A (80-100)
"CN(CC(F)(F)F)C(=O)c1cc(NC(=O)[C@H]2[C@H](c3cc(Cl)cc(Cl)c3)C2(Cl)Cl)ccc1Cl (relative stereo) [F59, trans-2-Chloro-5-(2,2-dichloro-3-(3,5-dichlorophenyl)cyclopropane-1-carboxamido)-N-methyl-N-(2,2,2-trifluoroethyl)benzamide]",50 to 100,50 to 100,0 to 80,A (80-100)
"O=C(NCc1ccc(F)cc1)c1cc(NC(=O)[C@H]2[C@H](c3cc(Cl)cc(Cl)c3)C2(Cl)Cl)ccc1Cl (relative stereo) [F28, trans-2-Chloro-5-(2,2-dichloro-3-(3,5-dichlorophenyl)cyclopropane-1-carboxamido)-N-(4-fluorobenzyl)benzamide]",50 to 100,50 to 100,80 to 100,A (80-100)
"O=C(NOCC1CC1(F)F)c1cc(NC(=O)C2C(c3ccc(Cl)c(Cl)c3)C2(Cl)Cl)ccc1Cl (stereo not drawn) [F22, trans-N-2-Chloro-5-(2,2-dichloro-3-(3,4-dichlorophenyl)cyclopropane-1-carboxamido)-N-((2,2-difluorocyclopropyl)methoxy)benzamide]",50 to 100,50 to 100,80 to 100,B (More than 0-Less than 80)
"N#CCCNC(=O)c1cc(NC(=O)[C@H]2[C@H](c3cc(Cl)cc(Cl)c3)C2(Cl)Cl)ccc1Cl (relative stereo) [F37, trans-2-Chloro-N-(2-cyanoethyl)-5-(2,2-dichloro-3-(3,5-dichlorophenyl)cyclopropane-1-carboxamido)benzamide]",50 to 100,50 to 100,0 to 80,A (80-100)
"CS(=O)(=O)CCNC(=O)c1cc(NC(=O)[C@H]2[C@H](c3cc(Cl)cc(Cl)c3)C2(Cl)Cl)ccc1Cl (relative stereo) [F75, trans-2-chloro-5-(2,2-dichloro-3-(3,5-dichlorophenyl)cyclopropane-1-carboxamido)-N-(2-(methylsulfonyl)ethyl)benzamide]",50 to 100,50 to 100,80 to 100,A (80-100)
"O=C(NCCOCC1CC1)c1cc(NC(=O)[C@H]2[C@H](c3cc(Cl)cc(Cl)c3)C2(Cl)Cl)ccc1Cl (relative stereo) [F43, trans-2-Chloro-N-(2-(cyclopropylmethoxy)ethyl)-5-(2,2-dichloro-3-(3,5-dichlorophenyl)cyclopropane-1-carboxamido)benzamide]",50 to 100,50 to 100,80 to 100,
"O=C(NOCc1ccc(F)cc1)c1cc(NC(=O)C2C(c3cc(Cl)c(Cl)c(Cl)c3)C2(Cl)Cl)ccc1Cl (stereo not drawn) [F18, trans-N-2-Chloro-5-(2,2-dichloro-3-(3,4,5-trichlorophenyl)cyclopropane-1-carboxamido)-N-((4-fluorobenzyl)oxy)benzamide]",50 to 100,50 to 100,0 to 80,
